{
  "source": "the supplement of paper PMC10307832",
  "assay_in_all_cases": "relative viability (nuclei count vs DMSO), 5 days (fraction); higher = more cells survive",
  "key": {"[1]": {"system": "COR-L23", "summary_of_the_method": "(§1)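 Relative viability is defined as nuclei in treated wells over nuclei in vehicle wells. Duplicate plates were run and medians reported. Lung cancer cell lines in 1536-well plates were dosed by pin tool one day after seeding, with one drug or with a fixed anchor-drug dose plus five library-drug doses (not always all listed) in √10 steps, and nuclei were counted after 5 days.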"}, "[2]": {"system": "ChaGo-K-1", "summary_of_the_method": "as §1"}, "[3]": {"system": "EMC-BAC-2", "summary_of_the_method": "as §1"}, "[4]": {"system": "EPLC-272H", "summary_of_the_method": "as §1"}, "[5]": {"system": "H3255", "summary_of_the_method": "as §1"}, "[6]": {"system": "HCC-44", "summary_of_the_method": "as §1"}, "[7]": {"system": "HCC-827", "summary_of_the_method": "as §1"}, "[8]": {"system": "LU99A", "summary_of_the_method": "as §1"}, "[9]": {"system": "NCI-H1395", "summary_of_the_method": "as §1"}, "[10]": {"system": "NCI-H1651", "summary_of_the_method": "as §1"}, "[11]": {"system": "NCI-H1793", "summary_of_the_method": "as §1"}, "[12]": {"system": "NCI-H1944", "summary_of_the_method": "as §1"}, "[13]": {"system": "NCI-H2023", "summary_of_the_method": "as §1"}, "[14]": {"system": "NCI-H2085", "summary_of_the_method": "as §1"}, "[15]": {"system": "NCI-H2087", "summary_of_the_method": "as §1"}, "[16]": {"system": "NCI-H2405", "summary_of_the_method": "as §1"}, "[17]": {"system": "NCI-H520", "summary_of_the_method": "as §1"}, "[18]": {"system": "NCI-H838", "summary_of_the_method": "as §1"}, "[19]": {"system": "SK-MES-1", "summary_of_the_method": "as §1"}},
  "data": [
    {"smiles": "O=c1cc(-c2cccc3c2Sc2ccccc2S3)oc(N2CCOCC2)c1", "note": "+ CC1(C)CCC(c2ccc(Cl)cc2)=C(CN2CCN(c3ccc(C(=O)NS(=O)(=O)c4ccc(N[C@H](CCN5CCOCC5)CSc5ccccc5)c(S(=O)(=O)C(F)(F)F)c4)cc3)CC2)C1 [Navitoclax] (partner 0.5 µM)", "values": [
      {"measurement": "relative viability", "setting": "[1]; first compound 0.08 µM", "value": 1.26},
      {"measurement": "relative viability", "setting": "[1]; first compound 0.253 µM", "value": 1.4},
      {"measurement": "relative viability", "setting": "[1]; first compound 0.8 µM", "value": 1.07},
      {"measurement": "relative viability", "setting": "[1]; first compound 2.53 µM", "value": 1.2},
      {"measurement": "relative viability", "setting": "[1]; first compound 8 µM", "value": 1.47},
      {"measurement": "relative viability", "setting": "[2]; first compound 0.08 µM", "value": 0.903},
      {"measurement": "relative viability", "setting": "[2]; first compound 0.253 µM", "value": 1.04},
      {"measurement": "relative viability", "setting": "[2]; first compound 0.8 µM", "value": 1.12},
      {"measurement": "relative viability", "setting": "[2]; first compound 8 µM", "value": 1.25},
      {"measurement": "relative viability", "setting": "[3]; first compound 0.08 µM", "value": 1.3},
      {"measurement": "relative viability", "setting": "[3]; first compound 0.253 µM", "value": 1.41},
      {"measurement": "relative viability", "setting": "[3]; first compound 0.8 µM", "value": 1.37},
      {"measurement": "relative viability", "setting": "[3]; first compound 2.53 µM", "value": 1.2},
      {"measurement": "relative viability", "setting": "[3]; first compound 8 µM", "value": 1.35},
      {"measurement": "relative viability", "setting": "[4]; first compound 0.08 µM", "value": 1.09},
      {"measurement": "relative viability", "setting": "[4]; first compound 0.253 µM", "value": 1.17},
      {"measurement": "relative viability", "setting": "[4]; first compound 0.8 µM", "value": 1.17},
      {"measurement": "relative viability", "setting": "[4]; first compound 2.53 µM", "value": 1.09},
      {"measurement": "relative viability", "setting": "[4]; first compound 8 µM", "value": 1.2},
      {"measurement": "relative viability", "setting": "[5]; first compound 0.08 µM", "value": 0.55},
      {"measurement": "relative viability", "setting": "[5]; first compound 0.253 µM", "value": 0.468},
      {"measurement": "relative viability", "setting": "[5]; first compound 0.8 µM", "value": 0.474},
      {"measurement": "relative viability", "setting": "[5]; first compound 2.53 µM", "value": 0.61},
      {"measurement": "relative viability", "setting": "[5]; first compound 8 µM", "value": 0.698},
      {"measurement": "relative viability", "setting": "[6]; first compound 0.08 µM", "value": 0.916},
      {"measurement": "relative viability", "setting": "[6]; first compound 0.253 µM", "value": 1.2},
      {"measurement": "relative viability", "setting": "[6]; first compound 0.8 µM", "value": 0.859},
      {"measurement": "relative viability", "setting": "[6]; first compound 2.53 µM", "value": 0.96},
      {"measurement": "relative viability", "setting": "[6]; first compound 8 µM", "value": 0.905},
      {"measurement": "relative viability", "setting": "[7]; first compound 0.08 µM", "value": 1.05},
      {"measurement": "relative viability", "setting": "[7]; first compound 0.253 µM", "value": 1.06},
      {"measurement": "relative viability", "setting": "[7]; first compound 0.8 µM", "value": 1.08},
      {"measurement": "relative viability", "setting": "[7]; first compound 2.53 µM", "value": 0.998},
      {"measurement": "relative viability", "setting": "[7]; first compound 8 µM", "value": 1.07},
      {"measurement": "relative viability", "setting": "[8]; first compound 0.08 µM", "value": 0.809},
      {"measurement": "relative viability", "setting": "[8]; first compound 0.253 µM", "value": 0.918},
      {"measurement": "relative viability", "setting": "[8]; first compound 0.8 µM", "value": 0.84},
      {"measurement": "relative viability", "setting": "[8]; first compound 2.53 µM", "value": 0.786},
      {"measurement": "relative viability", "setting": "[8]; first compound 8 µM", "value": 0.958},
      {"measurement": "relative viability", "setting": "[9]; first compound 0.08 µM", "value": 1.14},
      {"measurement": "relative viability", "setting": "[9]; first compound 0.253 µM", "value": 1.1},
      {"measurement": "relative viability", "setting": "[9]; first compound 0.8 µM", "value": 1.12},
      {"measurement": "relative viability", "setting": "[9]; first compound 2.53 µM", "value": 1.13},
      {"measurement": "relative viability", "setting": "[9]; first compound 8 µM", "value": 1.03},
      {"measurement": "relative viability", "setting": "[10]; first compound 0.08 µM", "value": 1.04},
      {"measurement": "relative viability", "setting": "[10]; first compound 0.253 µM", "value": 1.42},
      {"measurement": "relative viability", "setting": "[10]; first compound 0.8 µM", "value": 0.852},
      {"measurement": "relative viability", "setting": "[10]; first compound 2.53 µM", "value": 0.994},
      {"measurement": "relative viability", "setting": "[10]; first compound 8 µM", "value": 1.14},
      {"measurement": "relative viability", "setting": "[11]; first compound 0.08 µM", "value": 0.307},
      {"measurement": "relative viability", "setting": "[11]; first compound 0.253 µM", "value": 0.515},
      {"measurement": "relative viability", "setting": "[11]; first compound 0.8 µM", "value": 0.344},
      {"measurement": "relative viability", "setting": "[11]; first compound 2.53 µM", "value": 0.362},
      {"measurement": "relative viability", "setting": "[11]; first compound 8 µM", "value": 0.356},
      {"measurement": "relative viability", "setting": "[12]; first compound 0.08 µM", "value": 1},
      {"measurement": "relative viability", "setting": "[12]; first compound 0.253 µM", "value": 1.11},
      {"measurement": "relative viability", "setting": "[12]; first compound 0.8 µM", "value": 1.06},
      {"measurement": "relative viability", "setting": "[12]; first compound 8 µM", "value": 1.16},
      {"measurement": "relative viability", "setting": "[13]; first compound 0.08 µM", "value": 1.04},
      {"measurement": "relative viability", "setting": "[13]; first compound 0.253 µM", "value": 1.12},
      {"measurement": "relative viability", "setting": "[13]; first compound 0.8 µM", "value": 1.04},
      {"measurement": "relative viability", "setting": "[13]; first compound 2.53 µM", "value": 0.943},
      {"measurement": "relative viability", "setting": "[13]; first compound 8 µM", "value": 1.02},
      {"measurement": "relative viability", "setting": "[14]; first compound 0.08 µM", "value": 1.15},
      {"measurement": "relative viability", "setting": "[14]; first compound 0.253 µM", "value": 1.31},
      {"measurement": "relative viability", "setting": "[14]; first compound 0.8 µM", "value": 1.17},
      {"measurement": "relative viability", "setting": "[14]; first compound 2.53 µM", "value": 1.05},
      {"measurement": "relative viability", "setting": "[14]; first compound 8 µM", "value": 1.07},
      {"measurement": "relative viability", "setting": "[15]; first compound 0.08 µM", "value": 0.995},
      {"measurement": "relative viability", "setting": "[15]; first compound 0.253 µM", "value": 1.3},
      {"measurement": "relative viability", "setting": "[15]; first compound 0.8 µM", "value": 1.07},
      {"measurement": "relative viability", "setting": "[15]; first compound 2.53 µM", "value": 0.955},
      {"measurement": "relative viability", "setting": "[15]; first compound 8 µM", "value": 1.21},
      {"measurement": "relative viability", "setting": "[16]; first compound 0.08 µM", "value": 0.887},
      {"measurement": "relative viability", "setting": "[16]; first compound 0.253 µM", "value": 0.761},
      {"measurement": "relative viability", "setting": "[16]; first compound 0.8 µM", "value": 0.794},
      {"measurement": "relative viability", "setting": "[16]; first compound 2.53 µM", "value": 0.825},
      {"measurement": "relative viability", "setting": "[16]; first compound 8 µM", "value": 0.78},
      {"measurement": "relative viability", "setting": "[17]; first compound 0.08 µM", "value": 0.992},
      {"measurement": "relative viability", "setting": "[17]; first compound 0.253 µM", "value": 1.1},
      {"measurement": "relative viability", "setting": "[17]; first compound 0.8 µM", "value": 1.04},
      {"measurement": "relative viability", "setting": "[17]; first compound 2.53 µM", "value": 0.993},
      {"measurement": "relative viability", "setting": "[17]; first compound 8 µM", "value": 1.2},
      {"measurement": "relative viability", "setting": "[18]; first compound 0.08 µM", "value": 1.11},
      {"measurement": "relative viability", "setting": "[18]; first compound 0.253 µM", "value": 1.64},
      {"measurement": "relative viability", "setting": "[18]; first compound 0.8 µM", "value": 0.944},
      {"measurement": "relative viability", "setting": "[18]; first compound 2.53 µM", "value": 1.02},
      {"measurement": "relative viability", "setting": "[18]; first compound 8 µM", "value": 1.09},
      {"measurement": "relative viability", "setting": "[19]; first compound 0.08 µM", "value": 1.1},
      {"measurement": "relative viability", "setting": "[19]; first compound 0.253 µM", "value": 1.54},
      {"measurement": "relative viability", "setting": "[19]; first compound 0.8 µM", "value": 1.2},
      {"measurement": "relative viability", "setting": "[19]; first compound 2.53 µM", "value": 1.17},
      {"measurement": "relative viability", "setting": "[19]; first compound 8 µM", "value": 1.24}
    ]}
  ]
}
